Laboratory results as given in ChEMBL document CHEMBL4507319 (2021).

Experiments:
[1] = molecular target: Calcium/calmodulin-dependent protein kinase kinase 1 (Homo sapiens) (UniProt Q8N5S9); test: CaMKK1(h) Eurofins kinase panel; conditions: Compound concentration 1.0 uM
[2] = molecular target: Serine/threonine-protein kinase Chk2 (Homo sapiens) (UniProt O96017); test: CHK2(h) Eurofins kinase panel; conditions: Compound concentration 1.0 uM
[3] = molecular target: T1, Rhodopsin kinase GRK7 (Homo sapiens) (UniProt Q8WTQ7); test: GRK7(h) Eurofins kinase panel; conditions: Compound concentration 1.0 uM
T1 sequence (whole entry): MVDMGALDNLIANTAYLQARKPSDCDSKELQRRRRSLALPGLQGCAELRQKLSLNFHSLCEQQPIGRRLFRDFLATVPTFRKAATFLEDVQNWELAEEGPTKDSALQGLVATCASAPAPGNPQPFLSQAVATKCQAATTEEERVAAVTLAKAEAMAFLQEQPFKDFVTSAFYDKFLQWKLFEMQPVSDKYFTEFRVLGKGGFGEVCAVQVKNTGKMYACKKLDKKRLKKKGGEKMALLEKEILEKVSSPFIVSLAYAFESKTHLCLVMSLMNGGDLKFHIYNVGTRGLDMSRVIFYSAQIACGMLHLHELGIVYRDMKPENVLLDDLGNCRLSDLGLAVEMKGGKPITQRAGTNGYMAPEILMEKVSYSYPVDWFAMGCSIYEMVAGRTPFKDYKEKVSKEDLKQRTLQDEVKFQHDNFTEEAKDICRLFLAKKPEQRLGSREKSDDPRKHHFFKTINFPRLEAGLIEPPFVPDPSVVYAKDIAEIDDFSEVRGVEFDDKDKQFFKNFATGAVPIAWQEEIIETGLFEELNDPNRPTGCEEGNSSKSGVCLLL

[4] = molecular target: Insulin receptor-related protein (Homo sapiens) (UniProt P14616); test: IRR(h) Eurofins kinase panel; conditions: Compound concentration 1.0 uM
[5] = molecular target: Serine/threonine-protein kinase MARK1 (Homo sapiens) (UniProt Q9P0L2); test: MARK1(h) Eurofins kinase panel; conditions: Compound concentration 1.0 uM
[6] = molecular target: Platelet-derived growth factor receptor beta (Homo sapiens) (UniProt P09619); test: PDGFRbeta(h) Eurofins kinase panel; conditions: Compound concentration 1.0 uM
[7] = molecular target: Serine/threonine-protein kinase N2 (Homo sapiens) (UniProt Q16513); test: PRK2(h) Eurofins kinase panel; conditions: Compound concentration 1.0 uM
[8] = molecular target: T2, cAMP-dependent protein kinase catalytic subunit PRKX (Homo sapiens) (UniProt P51817); test: PrKX(h) Eurofins kinase panel; conditions: Compound concentration 1.0 uM
T2 sequence (whole entry): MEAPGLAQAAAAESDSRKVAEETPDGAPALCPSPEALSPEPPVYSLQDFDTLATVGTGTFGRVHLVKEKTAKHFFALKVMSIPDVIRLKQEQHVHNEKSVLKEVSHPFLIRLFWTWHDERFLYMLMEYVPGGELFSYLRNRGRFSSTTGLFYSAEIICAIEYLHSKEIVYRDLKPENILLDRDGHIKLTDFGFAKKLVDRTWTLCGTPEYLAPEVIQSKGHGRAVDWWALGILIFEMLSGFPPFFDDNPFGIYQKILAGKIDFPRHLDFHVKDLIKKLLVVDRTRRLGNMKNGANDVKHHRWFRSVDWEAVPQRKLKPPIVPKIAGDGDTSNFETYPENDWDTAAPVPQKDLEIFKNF

[9] = molecular target: Ribosomal protein S6 kinase alpha-6 (Homo sapiens) (UniProt Q9UK32); test: Rsk4(h) Eurofins kinase panel; conditions: Compound concentration 1.0 uM
[10] = molecular target: STE20-like serine/threonine-protein kinase (Homo sapiens) (UniProt Q9H2G2); test: SLK(h) Eurofins kinase panel; conditions: Compound concentration 1.0 uM
[11] = molecular target: Tyrosine-protein kinase SYK (Homo sapiens) (UniProt P43405); test: Syk(h) Eurofins kinase panel; conditions: Compound concentration 1.0 uM
[12] = molecular target: T3, Testis-specific serine/threonine-protein kinase 3 (Homo sapiens) (UniProt Q96PN8); test: TSSK3(h) Eurofins kinase panel; conditions: Compound concentration 1.0 uM
T3 sequence (whole entry): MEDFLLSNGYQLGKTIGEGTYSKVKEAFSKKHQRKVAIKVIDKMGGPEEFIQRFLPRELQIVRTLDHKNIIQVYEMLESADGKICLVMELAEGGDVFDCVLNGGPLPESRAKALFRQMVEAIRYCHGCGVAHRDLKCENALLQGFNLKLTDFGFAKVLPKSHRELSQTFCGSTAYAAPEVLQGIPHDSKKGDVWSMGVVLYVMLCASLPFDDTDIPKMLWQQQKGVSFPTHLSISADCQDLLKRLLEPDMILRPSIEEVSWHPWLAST

[13] = molecular target: T4, Serine/threonine-protein kinase ULK1 (Homo sapiens) (UniProt O75385); test: ULK1(h) Eurofins kinase panel; conditions: Compound concentration 1.0 uM
T4 sequence (whole entry): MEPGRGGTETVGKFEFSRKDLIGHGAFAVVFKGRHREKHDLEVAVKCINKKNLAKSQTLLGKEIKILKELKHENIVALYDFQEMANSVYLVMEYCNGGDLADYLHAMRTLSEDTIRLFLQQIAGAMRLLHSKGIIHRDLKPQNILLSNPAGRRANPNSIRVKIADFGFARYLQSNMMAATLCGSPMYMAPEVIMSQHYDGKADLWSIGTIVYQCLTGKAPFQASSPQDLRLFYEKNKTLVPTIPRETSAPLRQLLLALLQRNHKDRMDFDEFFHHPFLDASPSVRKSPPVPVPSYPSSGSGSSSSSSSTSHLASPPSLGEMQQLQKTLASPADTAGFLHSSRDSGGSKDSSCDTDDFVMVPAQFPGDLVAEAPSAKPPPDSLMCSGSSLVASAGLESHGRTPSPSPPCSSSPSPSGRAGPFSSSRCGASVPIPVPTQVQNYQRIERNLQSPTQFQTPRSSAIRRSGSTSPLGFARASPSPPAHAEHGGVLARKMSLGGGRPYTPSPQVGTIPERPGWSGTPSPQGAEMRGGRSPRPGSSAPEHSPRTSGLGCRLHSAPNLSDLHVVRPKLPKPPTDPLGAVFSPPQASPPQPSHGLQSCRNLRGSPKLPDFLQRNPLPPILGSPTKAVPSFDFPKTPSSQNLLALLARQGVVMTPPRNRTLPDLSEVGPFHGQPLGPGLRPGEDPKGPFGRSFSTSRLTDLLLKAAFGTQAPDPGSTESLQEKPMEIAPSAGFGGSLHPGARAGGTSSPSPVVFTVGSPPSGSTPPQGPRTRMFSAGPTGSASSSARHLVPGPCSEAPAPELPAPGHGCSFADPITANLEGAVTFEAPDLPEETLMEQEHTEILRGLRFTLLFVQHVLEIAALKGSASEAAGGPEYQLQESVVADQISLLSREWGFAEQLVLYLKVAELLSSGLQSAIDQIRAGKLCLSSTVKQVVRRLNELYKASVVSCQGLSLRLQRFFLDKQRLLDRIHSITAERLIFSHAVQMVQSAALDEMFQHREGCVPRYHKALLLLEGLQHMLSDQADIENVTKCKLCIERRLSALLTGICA

[14] = molecular target: Serine/threonine-protein kinase WNK2 (Homo sapiens) (UniProt Q9Y3S1); test: WNK2(h) Eurofins kinase panel; conditions: Compound concentration 1.0 uM
[15] = molecular target: Serine-protein kinase ATM (Homo sapiens) (UniProt Q13315); test: ATM(h) Eurofins kinase panel; conditions: Compound concentration 1.0 uM
[16] = molecular target: Ribosomal protein S6 kinase alpha-2 (Homo sapiens, UniProt Q15349)

STE20-like serine/threonine-protein kinase (Homo sapiens), sequence (Q9H2G2 whole entry, looked up): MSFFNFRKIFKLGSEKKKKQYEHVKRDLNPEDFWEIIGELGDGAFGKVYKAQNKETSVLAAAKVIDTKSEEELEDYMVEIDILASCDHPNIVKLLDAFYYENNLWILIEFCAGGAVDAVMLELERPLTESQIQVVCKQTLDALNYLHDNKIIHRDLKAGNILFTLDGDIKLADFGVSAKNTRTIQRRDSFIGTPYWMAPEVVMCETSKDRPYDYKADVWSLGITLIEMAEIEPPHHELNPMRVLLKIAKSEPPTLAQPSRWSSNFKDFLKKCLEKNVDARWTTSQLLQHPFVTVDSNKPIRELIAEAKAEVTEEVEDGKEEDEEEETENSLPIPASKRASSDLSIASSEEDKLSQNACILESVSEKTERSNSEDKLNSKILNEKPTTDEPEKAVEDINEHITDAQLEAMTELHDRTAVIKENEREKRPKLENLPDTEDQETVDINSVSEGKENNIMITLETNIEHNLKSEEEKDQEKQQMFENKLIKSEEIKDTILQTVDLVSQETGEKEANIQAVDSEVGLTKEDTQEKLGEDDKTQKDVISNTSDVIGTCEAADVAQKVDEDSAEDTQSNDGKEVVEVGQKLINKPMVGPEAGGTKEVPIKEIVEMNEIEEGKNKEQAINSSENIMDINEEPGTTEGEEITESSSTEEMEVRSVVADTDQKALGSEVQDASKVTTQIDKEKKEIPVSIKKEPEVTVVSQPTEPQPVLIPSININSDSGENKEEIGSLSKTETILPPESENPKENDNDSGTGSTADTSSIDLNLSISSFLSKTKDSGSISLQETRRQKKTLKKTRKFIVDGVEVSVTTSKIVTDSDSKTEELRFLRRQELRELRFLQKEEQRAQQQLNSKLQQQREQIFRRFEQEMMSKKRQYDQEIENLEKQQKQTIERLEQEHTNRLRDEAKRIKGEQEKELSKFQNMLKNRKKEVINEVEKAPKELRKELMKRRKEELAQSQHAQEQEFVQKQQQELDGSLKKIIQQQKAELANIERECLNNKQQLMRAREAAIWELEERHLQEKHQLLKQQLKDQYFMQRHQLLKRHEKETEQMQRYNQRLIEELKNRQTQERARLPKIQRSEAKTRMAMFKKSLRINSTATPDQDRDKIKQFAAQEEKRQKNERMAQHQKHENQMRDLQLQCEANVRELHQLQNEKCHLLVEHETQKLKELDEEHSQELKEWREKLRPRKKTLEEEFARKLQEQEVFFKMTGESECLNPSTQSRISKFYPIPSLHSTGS
Serine/threonine-protein kinase N2 (Homo sapiens), sequence (Q16513 whole entry, looked up): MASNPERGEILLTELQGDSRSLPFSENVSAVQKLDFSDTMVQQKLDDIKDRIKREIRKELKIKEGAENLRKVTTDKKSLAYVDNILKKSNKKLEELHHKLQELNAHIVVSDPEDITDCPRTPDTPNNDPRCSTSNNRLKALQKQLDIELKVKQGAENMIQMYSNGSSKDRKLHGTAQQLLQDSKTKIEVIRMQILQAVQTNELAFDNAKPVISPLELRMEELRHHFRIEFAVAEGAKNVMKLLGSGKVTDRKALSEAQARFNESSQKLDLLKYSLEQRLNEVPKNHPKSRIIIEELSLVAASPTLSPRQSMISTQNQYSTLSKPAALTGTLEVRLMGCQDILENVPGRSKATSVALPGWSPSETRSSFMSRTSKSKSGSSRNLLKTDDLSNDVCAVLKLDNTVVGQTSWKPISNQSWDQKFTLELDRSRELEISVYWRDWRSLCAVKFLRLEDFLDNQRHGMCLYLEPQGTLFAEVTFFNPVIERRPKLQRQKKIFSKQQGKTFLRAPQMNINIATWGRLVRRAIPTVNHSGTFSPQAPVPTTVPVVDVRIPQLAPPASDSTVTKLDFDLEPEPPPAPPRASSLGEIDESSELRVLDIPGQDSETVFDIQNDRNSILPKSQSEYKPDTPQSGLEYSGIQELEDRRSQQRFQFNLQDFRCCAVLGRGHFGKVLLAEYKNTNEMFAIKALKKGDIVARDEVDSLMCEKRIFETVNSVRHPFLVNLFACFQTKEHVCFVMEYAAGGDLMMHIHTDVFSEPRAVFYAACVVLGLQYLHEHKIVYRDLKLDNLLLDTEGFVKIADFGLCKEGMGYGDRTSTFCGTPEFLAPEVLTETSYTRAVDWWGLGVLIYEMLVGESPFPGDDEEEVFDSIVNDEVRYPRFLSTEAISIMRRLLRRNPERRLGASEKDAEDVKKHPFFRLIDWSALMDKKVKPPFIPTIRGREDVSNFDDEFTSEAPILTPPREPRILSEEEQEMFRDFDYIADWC
Platelet-derived growth factor receptor beta (Homo sapiens), sequence (P09619 whole entry): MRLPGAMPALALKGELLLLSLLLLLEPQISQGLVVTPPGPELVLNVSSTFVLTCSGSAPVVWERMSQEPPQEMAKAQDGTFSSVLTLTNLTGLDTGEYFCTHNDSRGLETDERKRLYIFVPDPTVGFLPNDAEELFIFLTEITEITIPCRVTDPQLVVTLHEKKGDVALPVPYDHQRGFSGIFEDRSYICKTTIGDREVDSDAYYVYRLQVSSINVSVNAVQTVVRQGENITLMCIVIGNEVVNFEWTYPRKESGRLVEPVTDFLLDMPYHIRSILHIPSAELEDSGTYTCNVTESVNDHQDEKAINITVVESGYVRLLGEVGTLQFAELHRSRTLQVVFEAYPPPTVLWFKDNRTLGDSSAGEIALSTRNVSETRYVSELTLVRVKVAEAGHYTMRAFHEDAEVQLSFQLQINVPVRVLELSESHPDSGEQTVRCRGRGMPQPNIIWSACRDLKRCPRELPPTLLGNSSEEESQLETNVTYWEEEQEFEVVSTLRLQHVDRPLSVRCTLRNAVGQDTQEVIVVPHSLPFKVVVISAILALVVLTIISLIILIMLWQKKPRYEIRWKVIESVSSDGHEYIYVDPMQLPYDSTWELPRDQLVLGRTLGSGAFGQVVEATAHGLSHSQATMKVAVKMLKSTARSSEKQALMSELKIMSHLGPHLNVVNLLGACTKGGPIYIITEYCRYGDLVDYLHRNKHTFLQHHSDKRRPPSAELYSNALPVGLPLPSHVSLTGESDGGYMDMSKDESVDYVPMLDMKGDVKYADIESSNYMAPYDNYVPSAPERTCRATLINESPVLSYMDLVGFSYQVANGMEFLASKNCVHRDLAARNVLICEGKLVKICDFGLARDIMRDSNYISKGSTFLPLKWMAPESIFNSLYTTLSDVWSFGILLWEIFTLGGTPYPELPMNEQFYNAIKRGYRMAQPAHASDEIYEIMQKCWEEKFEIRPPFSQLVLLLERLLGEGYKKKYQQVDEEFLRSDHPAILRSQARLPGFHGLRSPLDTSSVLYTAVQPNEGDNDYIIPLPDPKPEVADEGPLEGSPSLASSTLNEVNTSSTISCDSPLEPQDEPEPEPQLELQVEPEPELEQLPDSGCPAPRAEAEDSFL
Insulin receptor-related protein (Homo sapiens), sequence (P14616 27-742 limits assumed): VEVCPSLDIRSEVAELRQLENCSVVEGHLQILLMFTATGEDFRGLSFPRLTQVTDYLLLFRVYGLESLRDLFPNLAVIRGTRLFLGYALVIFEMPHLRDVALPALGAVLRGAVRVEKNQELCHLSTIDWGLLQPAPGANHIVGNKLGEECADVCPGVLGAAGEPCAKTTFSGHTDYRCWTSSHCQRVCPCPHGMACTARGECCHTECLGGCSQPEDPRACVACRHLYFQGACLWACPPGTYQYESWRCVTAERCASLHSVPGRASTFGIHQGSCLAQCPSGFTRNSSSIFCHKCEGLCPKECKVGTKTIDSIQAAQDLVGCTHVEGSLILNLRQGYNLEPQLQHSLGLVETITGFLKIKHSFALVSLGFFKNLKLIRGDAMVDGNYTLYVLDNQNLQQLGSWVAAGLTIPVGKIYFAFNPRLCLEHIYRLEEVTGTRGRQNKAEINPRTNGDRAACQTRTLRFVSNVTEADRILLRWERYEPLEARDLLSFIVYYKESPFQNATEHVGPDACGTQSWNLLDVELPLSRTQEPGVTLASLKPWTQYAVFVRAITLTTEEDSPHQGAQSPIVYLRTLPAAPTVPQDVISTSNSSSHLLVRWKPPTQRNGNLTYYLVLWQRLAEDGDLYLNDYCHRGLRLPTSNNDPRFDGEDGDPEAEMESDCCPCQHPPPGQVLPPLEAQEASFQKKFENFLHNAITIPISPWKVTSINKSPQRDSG
Insulin receptor-related protein (Homo sapiens), sequence (P14616 747-1297 limits assumed): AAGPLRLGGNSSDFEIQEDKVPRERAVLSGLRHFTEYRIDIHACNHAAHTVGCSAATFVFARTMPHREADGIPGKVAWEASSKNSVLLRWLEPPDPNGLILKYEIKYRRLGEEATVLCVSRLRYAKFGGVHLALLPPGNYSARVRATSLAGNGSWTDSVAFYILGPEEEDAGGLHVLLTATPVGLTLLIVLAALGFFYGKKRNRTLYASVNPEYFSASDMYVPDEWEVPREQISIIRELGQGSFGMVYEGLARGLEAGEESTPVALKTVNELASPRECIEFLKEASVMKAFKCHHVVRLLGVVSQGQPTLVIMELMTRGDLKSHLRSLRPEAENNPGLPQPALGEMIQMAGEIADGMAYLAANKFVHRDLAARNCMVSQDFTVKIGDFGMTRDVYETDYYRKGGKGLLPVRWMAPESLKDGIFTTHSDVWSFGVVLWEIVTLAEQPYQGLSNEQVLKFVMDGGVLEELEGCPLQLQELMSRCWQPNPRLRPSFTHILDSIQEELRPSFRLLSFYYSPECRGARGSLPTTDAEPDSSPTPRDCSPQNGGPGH
Calcium/calmodulin-dependent protein kinase kinase 1 (Homo sapiens), sequence (Q8N5S9 whole entry, looked up): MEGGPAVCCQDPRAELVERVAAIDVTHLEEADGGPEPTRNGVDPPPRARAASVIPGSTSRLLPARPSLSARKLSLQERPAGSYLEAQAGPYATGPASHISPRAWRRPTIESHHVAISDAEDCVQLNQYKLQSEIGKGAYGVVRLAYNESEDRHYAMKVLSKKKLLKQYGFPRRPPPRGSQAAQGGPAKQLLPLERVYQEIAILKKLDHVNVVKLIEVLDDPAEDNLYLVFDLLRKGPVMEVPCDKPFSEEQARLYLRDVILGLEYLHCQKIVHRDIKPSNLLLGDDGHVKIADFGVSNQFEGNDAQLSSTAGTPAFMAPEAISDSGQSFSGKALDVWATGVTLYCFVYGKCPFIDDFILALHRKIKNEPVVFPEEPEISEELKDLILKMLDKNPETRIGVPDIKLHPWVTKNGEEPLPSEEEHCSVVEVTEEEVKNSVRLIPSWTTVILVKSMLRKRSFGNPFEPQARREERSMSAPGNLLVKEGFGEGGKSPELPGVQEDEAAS

CCc1ccccc1C(=O)Nc1n[nH]c2c(C)c(F)c(C3C(C#N)=C(C)N(C)C(C)=C3C#N)cc12 [BAY-3827]
inactive: % residual kinase activity [1] 95% | % residual kinase activity [2] 100% | % residual kinase activity [3] 78% | % residual kinase activity [4] 101% | % residual kinase activity [5] 66% | % residual kinase activity [6] 108% | % residual kinase activity [7] 93% | % residual kinase activity [8] 94% | % residual kinase activity [9] 2% | % residual kinase activity [10] 101% | % residual kinase activity [11] 106% | % residual kinase activity [12] 110% | % residual kinase activity [13] 26% | % residual kinase activity [14] 87% | % residual kinase activity [15] 99%
24 nM: IC50 [16]
